From patent publication US20200072837A1, “METHODS FOR PREVENTING, MODULATING AND/OR REDUCING CARDIOVASCULAR DISEASE” (OP-T LLC, priority 2018, published 2020)

Experiments:
[1] = system: NOD mice; test: Development of diabetes in NOD mice treated with CD154 peptides; format: in vivo, mouse; details: weekly iv injection from 6 weeks of age, diabetic = blood glucose above 250 mg/dL on 3 consecutive measures
Protocol: (§1) Peptides were designed based on the amino acid sequence of mouse CD154 protein (SEQ ID NO:1) in the SwissPro database. […] Weekly after the initial injection, another 100 ug of peptide (or 100 ul of saline in the case of the Control mice) was injected into the tail vein. At 10 weeks of age, mice were monitored for diabetes, as indicated by a blood glucose level greater than 250 mg/dL for three consecutive days. During this time, blood was also taken from the tail vein, or by sub-mandibular venal puncture, and the level of CD4+ and CD8+ cells determined by flow cytometry using antibodies for CD4 protein and CD8 protein.
NOD mice at 6 weeks of age were injected weekly iv with 25 ug (1 mg/kg) of each peptide through 45 weeks. Each cohort included 10 animals. Blood glucoses were measured and levels at 250 mg/dl or higher for 3 consecutive measures were considered diabetic. […] (This is showing in FIG. 1).

[2] = system: ApoE-/- mice; test: LDL cholesterol in ApoE-/- mice; format: in vivo, mouse; details: 1 mg/kg IV once a week for 4 weeks, treated versus untreated
Protocol: In this study, six ApoE−/− mice received a normal chow diet from 0 to 20 weeks of age. At 20 weeks of age, three mice were randomly assigned to receive dose of 1 mg/kg of KGYY6 (6-mer—SEQ ID NO:4) by IV tail injection, once a week for a period of 4 weeks. Control mice received vehicle only.

[3] = system: ApoE-/- mice; test: Atherosclerotic changes in ApoE-/- mice on high fat diet (en-face Sudan IV, Paigen method, trichrome); format: in vivo, mouse
Protocol: ApoE−/− mice were fed a high fat diet for 16 weeks. Mice were randomly assigned to receive dose of 1 mg/kg of KGYY6 (6-mer—SEQ ID NO:4) by IV tail injection, once a week for a period of 4 weeks. Control mice received vehicle only. Atherosclerosis was investigated by several methods. […] FIG. 28A is an image of KGYY6 treated aortic en-face Sudan IV staining and FIG. 28B is an image of control (untreated) aortic en-face Sudan staining.
Further, measurement of plaque area and morphology was performed using the Paigen method. This method obtains sequential 5 um aortic cross sections from the aortic root beginning at the valve leaflets into the ascending aorta. At 50 um intervals, slides are stained after which the area of atherosclerotic lesion is measured. Individual plaque area measurements are plotted against the micrometer intervals and a curve is established, with the area under the curve (AUC) giving the total volume of plaque.
ApoE−/−mice (n=16, 4 male and 4 female per group), fed a 60% high fat diet (Research Diets) for 16 weeks. 8 mice were injected with 1 mg/kg KGYY6 and […] with vehicle alone. Glucose tolerance testing (GTT) was performed by fasting 6 hours, followed by intraperitoneal injection of 1 g/kg body weight glucose in water. Both blood glucose and serum insulin were measured at 0, 15 min, 30 min, 60 min and 2 hours.

[4] = system: CD3+CD4+CD40+ splenic cells (Th40 cells); test: In vitro cytokine production of splenic Th40 cells, flow cytometry; format: cell-based, mouse; details: splenic lymphocytes of ApoE and C57BL/6 mice, overnight with varying concentrations of peptide
Protocol: Spleens from ApoE mice and C57BL/6 mice were processed for lymphocytes. ApoE−/− and C57BL/6 mice were fed a 60% high fat diet (research diet) for 1 week. Splenic lymphocytes were treated with 6-mer in vitro for 24 hours. Cells were placed in media overnight in the presence of varying concentrations of 6-mer peptides. The following morning, Brefeldin A was administered for 4 hours. All cells were stained for CD3, CD4, CD40 (Th40 cells) and measured by use of flow cytometry for their production of IL2, INFγ, and IL17a.
Spleens from ApoE mice and C57BL/6 mice were processed for lymphocytes, placed in media overnight in the presence of varying concentrations of KGYY6 peptide. BrefeldinA was administered for four hours.

[5] = system: NOD mice; test: CD4/CD8 ratio in blood of peptide-treated NOD mice by flow cytometry; format: in vivo, mouse
Protocol: as §1

[6] = system: NOD mice; test: Reversal of hyperglycemia in already diabetic NOD mice; format: in vivo, mouse
Protocol: Six mice from that had received the 6-mer peptide in Example 1, and that had subsequently developed diabetes, were injected intravenously with 100 ug of the 15-mer peptide. These mice were then given weekly injections of the 15-mer peptide into their tail veins, and their blood glucose levels monitored twice-weekly. The 15-mer peptide was administered for a total of ten weeks, after which the treatment was stopped.
(§2) At the onset of diabetes, six NOD mice were injected with 100 ug/ml of the 15-mer peptide (SEQ ID NO:9), resulting in the reversal of hyperglycemia in 80% of the recipients. Six weeks after reversal of hyperglycemia, mice were sacrificed and the pancreas removed for analysis. The pancreas was fixed, sectioned and then stained using an aldehyde/fuschsin stain that allows detection of insulin granules. Granulation of the tissue was scored as follows: 4=completely granulated; 3=75% of islet granulated; 2=50% of islet granulated, and peri-insulitis; 1=25% of islet granulated; 0=no insulin granules detected.

[7] = system: CD40+ T-cells; test: Binding of FITC-labeled 15-mer peptide to Th40 cells, flow cytometry; set-up: species or system mouse; details: lymphocytes of 9 week old NOD mice
Protocol: Total lymphocytes were isolated from 9 week old NOD mice. The lymphocytes were incubated with […], anti-CD8, and an FITC-labeled 15-mer peptide, and then analyzed by flow cytometry. Cells were gated for CD4 (both CD4hi and CD4lo populations were included) and CD4 versus the 15-mer peptide.

[8] = system: B cells; test: Binding of FITC-labeled 15-mer peptide to B cells, flow cytometry; set-up: species or system mouse; details: B cells from spleens of NOD mice, 90% CD40 positive
Protocol: B cells were isolated from the spleens of NOD mice. Sorted MHC-II+ cells were purified from total lymphocytes. Cells were stained with FITC-labeled 15 mer peptide, anti-CD40, and B cell markers CD19 and CD21. MHC-II+ cells were gated for CD19+ and CD21+ and then 15-mer peptide versus CD40 antibody was measured.

[9] = system: blood cells; test: Binding of biotin-conjugated 15-mer peptide to whole blood cells of type-I diabetic and control subjects; set-up: species or system human; details: type-I diabetes patients versus non-diabetic controls, absorbance at 405 nm
Protocol: 1 ml of whole blood was obtained from each individual and incubated with biotin-conjugated, 15-mer peptide. The cells were then exposed to horseradish peroxidase (HRP)-avidin, washed and the absorbance at 405 nm determined using a spectrophotometer.

[10] = system: NOD mice; test: Insulin granulation of pancreas in NOD mice after reversal of hyperglycemia; format: in vivo, mouse; details: six weeks after reversal of hyperglycemia, versus irrelevant peptide
Protocol: as §2

[11] = system: ApoE deficient mice; test: Atherosclerosis in ApoE deficient mice on normal chow, aortic arch analysis; format: in vivo, mouse
Protocol: ApoE deficient mice on a normal chow diet were selected to receive a dose of 1 mg/kg of the 15-mer peptide (SEQ ID NO: 7) by IV tail injection, three times a week over a period of […], beginning at 9 weeks of age and also utilized a control. At 25 weeks, the animals were euthanized, weighed, and then had blood, spleen, and pancreas removed for analysis. The subjects were then perfused through cardiac puncture with 4% paraformaldehyde. Aortic arches were dissected, dehydrated in sucrose gradient and then flash frozen.
FIG. 17 provides an example of the lesser curvature of the aortic arch, defined proximally from the aortic outflow (AO). Of the segments seen in the trichrome stain, an intimal distance of […] was measured distally. The aortic-arch wall area subtended by this 2.5 mm stretch of the intima was calculated for each section of all mice, with maximal area of the inner-aortic-arch wall of each mouse used to compute averages per group. The luminal surface (L), aortic arch (AO), and innominate artery (I) are labelled in this FIG. 17.
Plaque was subdivided based on morphology of early lesions (observable as fatty streaks containing macrophage derived foam cells with varying degrees of lipid accumulation) compared with more advanced fibroatheromas (containing varying degrees of lipid or necrotic core and fibrous caps). All plaque within the designated 2.5 mm segment were included.

[12] = system: ApoE-/- mice; test: Existing atherosclerotic disease in ApoE-/- mice, 4 weeks of treatment, plaque morphology; format: in vivo, mouse
Protocol: In this study, six ApoE−/− mice received a normal chow diet from 0 to 20 weeks of age. At 20 weeks of age, three mice were randomly assigned to receive dose of 1 mg/kg of KGYY15 (15-mer—SEQ ID NO:7) by IV tail injection, once a week for a period of 4 weeks. Control mice received vehicle only. After 4 weeks of treatment, animals were euthanized then perfused through cardiac puncture with 4% paraformaldehyde. Aortic arches were dissected in surcrose gradient and flash frozen. Approximately fifty, […] longitudinal sections were obtained per mouse. Slides were treated with trichrome stain and analyzed using cellSens software for measurements. Total plaque was measured including 2.5 mm lesser curvature and innominate artery.

[13] = Clot study in whole human blood; details: dosing levels similar to murine studies
Protocol: Whole human blood was administered the peptide in accordance with similar dosing levels to those used for murine studies.

[14] = trichrome staining, Image Pro Plus analysis
[15] = 1 mg/kg IV once a week for 4 weeks

What does the source list for KKGYYT [KGYY6]?
development / onset of diabetes [1]: prevents diabetes onset in NOD mice; reduction in LDL cholesterol values [2]: > 50%; lesion areas, en-face Sudan IV stain ([3]; ApoE-/- mice, high fat diet 16 weeks, 1 mg/kg IV once a week for 4 weeks): significant reduction in lesion areas; plaque volume (area under the curve), Paigen method ([3]; ApoE-/- mice, high fat diet, aortic root cross sections): reduction in plaque volume under the curve; plaque composition: collagen [3, 14]: increased collagen; plaque composition: smooth muscle content [3, 14]: reduced smooth muscle content; production of IFNg [4]: varying degrees of reduction; production of IL2 [4]: varying degrees of reduction; production of IL17a [4]: varying degrees of reduction

Which “development / onset of diabetes” value [1] does the source give for “VLQWAKKGYYTMKSN (VLQWAKKGYYTMKSK) [15-mer, 15-mer peptide from mouse CD154]” here?
Its value is “prevented the onset of diabetes”.

And the “development / onset of diabetes” value ([1]; listed as KGYY15)?
The value was “prevents diabetes onset in NOD mice”.

What about the “compromise of the immune system as determined by the CD4/CD8 ratio” value [5] of the same substance?
The value was “did not result in compromise of the immune system”.

What about the reversal of hyperglycemia ([6]; already diabetic NOD mice, 100 ug iv weekly for ten weeks) of the same substance?
Its reversal of hyperglycemia is “can reverse hyperglycemia”.

And the “return of hyperglycemia after cessation of the treatment” value ([6]; diabetic NOD mice, treatment stopped after ten weeks)?
Its value is at most 7 weeks.

And the “recipients with reversal of hyperglycemia” value ([6]; six NOD mice injected at onset of diabetes)?
The value was 80%.

And the “CD40+ T-cells that bind the peptide” value [7]?
Its value is 90%.

What about the “B cells that bound the peptide” value [8] of the same substance?
Its value is 8%.

And the “peptide binding activity of blood cells” value [9]?
Its value is “higher 15-mer peptide binding activity than cells from non-diabetic controls”.

And the “insulin granulation of the pancreas” value [10]?
The value was “preserved insulin granules in the majority of the mice”.

And the atherosclerosis ([11]; 1 mg/kg IV three times a week)?
The atherosclerosis was “abrogates atherosclerosis”.

What about the “total area of the 2.5 mm segment of the lesser curvature of the aortic arch” value ([11]; 1 mg/kg IV three times a week from 9 weeks of age) of the same substance?
The value was “substantially reduced”.

What about the “total number of plaque” value ([11]; 1 mg/kg IV three times a week, plaque within 2.5 mm segment) of the same substance?
Its value is “significantly decreased”.

What about the “average cap width (cap size)” value [12, 15] of the same substance?
The value was “greater”.

What about the “average core width (core size/plaque size)” value [12, 15] of the same substance?
Its value is “decreased”.

And the “cap to core ratio of advanced plaques” value [12, 15]?
The value was “reduced”.

And the “number of individual early plaques and advanced plaques” value ([12]; 1 mg/kg IV once a week for 4 weeks from 20 weeks of age)?
Its value is “reduced”.

And the “clotting of whole human blood” value [13]?
The value was “does not modify or change the clotting of whole human blood significantly outside of normally recognized levels”.

With VLQWAKKGYYTMK [13-mer] as the substance, how does the “development / onset of diabetes” value [1] read?
The value was “significant effects on the development of diabetes”.
